The source of these data is ChEMBL document CHEMBL4825753 (J Med Chem, 2021).

Structures are written as SMILES. Active and inactive are the calls of the source. The rule behind the calls is not given here.

In data set [1] the test system is BaF3. Nature of the data set: Growth inhibition of mouse BaF3 cells transfected with MER assessed as inhibition of cell growth incubated for 72 hrs by Cell-titer-Glo assay. The data set is classed as functional.
The subject of data set [2] is BaF3. Put plainly: Growth inhibition of mouse BaF3 cells transfected with FLT3 assessed as inhibition of cell growth incubated for 72 hrs by Cell-titer-Glo assay. The data set is classed as functional.
The test system of data set [3] is BaF3. Put plainly: Antitumour activity against mouse BaF3 cells transfected with AXL implanted in C57BL/6J mouse assessed as reduction in AXL phosphorylation at 30 to 100 mg/kg, po bid for 6 days western blot analysis. The data set is classed as functional, organism-based. To be noted: dose 30-100 mg/kg, time 6.0 day.
The test system of data set [4] is BaF3. Nature of the data set: Antitumour activity against mouse BaF3 cells transfected with MER implanted in C57BL/6J mouse assessed as reduction in tumour growth at 100 mg/kg, po bid for 6 days. The data set is classed as functional, organism-based. To be noted: time 6.0 day.
Data set [5] in a line: Fraction unbound in C57BL/6J mouse implanted with mouse BaF3 cells transfected with AXL in at 3 to 100 mg/kg, po bid for 6 days. The data set is classed as ADME, organism-based. To be noted: in vivo, dose 3-100 mg/kg, time 6 day.
Data set [6] relates to BaF3. Put plainly: Antitumour activity against mouse BaF3 cells transfected with MER implanted in C57BL/6J mouse assessed as reduction in MER phosphorylation at 30 to 100 mg/kg, po bid for 6 days by western blot analysis. The data set is classed as functional, organism-based. As to conditions: dose 30-100 mg/kg, time 6.0 day.
The subject of data set [7] is BaF3. Nature of the data set: Antitumour activity against mouse BaF3 cells transfected with AXL implanted in C57BL/6J mouse assessed as reduction in tumour growth at 3 to 100 mg/kg, po bid for 6 days. The data set is classed as functional, organism-based. To be noted: dose 3-100 mg/kg, time 6.0 day.
The nature of data set [8]: Fraction unbound in C57BL/6J mouse implanted with mouse BaF3 cells transfected with MER in at 3 to 100 mg/kg, po bid for 6 days. The data set is classed as ADME, organism-based. To be noted: in vivo, dose 3-100 mg/kg, time 6 day.
Data set [9] relates to BaF3. Put plainly: Growth inhibition of mouse BaF3 cells transfected with AXL assessed as inhibition of cell growth incubated for 72 hrs by Cell-titer-Glo assay. The data set is classed as functional.
Data set [10] has as its system BaF3. Nature of the data set: Growth inhibition of mouse BaF3 cells transfected with Tyro3 assessed as inhibition of cell growth incubated for 72 hrs by Cell-titer-Glo assay. The data set is classed as functional.
The nature of data set [11]: Photostability of compound assessed as half life. The data set is classed as physicochemical.

In the case of `Cc1cc(-c2c(C)nn(C)c2C)cnc1-c1nnc(N(C)Cc2ccc3ncc(-c4ccc(CN(C)C)cc4)n3c2)o1`, the GI50 with BaF3 [1] is 25.1 nM; in the data set with BaF3 [2] it was 3160 nM; in the data set with BaF3 [9], 100 nM; with BaF3 [10], 5010 nM. Moreover, the result in the data set with BaF3 [3], in the data set with BaF3 [4], in the data set with BaF3 [6] and with BaF3 [7] was Active. In addition, the fraction unbound at 144 h in [5] and in data set [8] was 0.076 in each case.
On to `Cc1cc(-c2c(C)nn(C)c2C)ccc1-c1nnc(N(C)Cc2ccc3nccn3c2)o1`, for which the half-life in [11] is 69 h.
